Bridge positions count the residues as written; N and C are the ends. Square brackets hold non-standard residues; d marks the D form. Ends that are not written are not given here. cellulose = not defined here; βAla = NCCC(=O)O

What all share (type): binding
Set-up in all cases: key: No binding of immunoglobulin for the defined peptide variant, detection negative: 0; Binding of immunoglobulin for the defined peptide variant, detection positive: +

In test [1] the test system is immunoglobulins in human plasma. The experiment in a line: Cellulose-immobilized 13-mer peptide variants incubated with human plasma, anti-human IgG-AP detection. The following applies: human plasma as sample, diluted 1:10,000 in blocking buffer, 3 h room temperature. In short, it runs like this: (§1)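 Read-out was colorimetric NBT/BCIP staining (developing buffer pH 9.5) after alkaline phosphatase-conjugated anti-human IgG at 1.2 μg/ml. Before this, the immobilized peptides had been incubated 3 h at room temperature with 1 μg/ml IgG-Fc, 1:10,000 diluted serum, or albumin-containing blocking buffer without addition.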

In another test the test system is human IgG-Fc. The test can be described thus: Cellulose-immobilized 13-mer peptide variants incubated with human IgG-Fc, anti-human IgG-AP detection. The following applies: IgG-Fc 1 μg/ml in blocking buffer, 3 h room temperature. In a few lines: as §1
The subject of a further test is serum albumin. The test can be described thus: Cellulose-immobilized 13-mer peptide variants incubated with serum albumin (negative control), anti-human IgG-AP detection. The note with it: blocking buffer without addition, 3 h room temperature. In short, it runs like this: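 Membrane-bound peptides, spaced by two β-alanines, are probed with 1 μg/ml IgG-Fc or 1:10,000 serum for 3 h at room temperature; blocking buffer alone acts as control. Detection uses anti-human IgG-AP (1.2 μg/ml) and NBT/BCIP.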

For the substance “02D: cellulose-bound 13-mer variant DDAWHLGELVWCT-(βA)(βA) (DDAWHLGELVWCT[βAla][βAla]; not fully specified; printed as DDAWHLGELVWCT-(βA)(βA); also: cellulose-bound)”, the “Result for incubation with human plasma (immunoglobulin binding detection)” value (from here on “Result for incubation with human plasma”) in test [1] is on record as 0. For the same substance, the “Result for incubation with human IgG-Fc (immunoglobulin binding detection)” value (from here on “Result for incubation with human IgG-Fc”) in the test on human IgG-Fc turned out to be 0. Moreover, the “Result for incubation with serum albumin (immunoglobulin binding detection)” value (from here on “Result for incubation with serum albumin”) in the test with serum albumin amounted to 0.

Regarding “04Q: cellulose-bound 13-mer variant DCAQHLGELVWCT-(βA)(βA) (disulfide 2-12 (inferred); not fully specified (N-terminus, C-terminus); printed as DCAQHLGELVWCT-(βA)(βA); also: cellulose-bound)”, in test [1], the “Result for incubation with human plasma” value was determined as 0. Further, the “Result for incubation with human IgG-Fc” value with human IgG-Fc is “+”. Besides, in the test with serum albumin, the “Result for incubation with serum albumin” value is reported as 0.

Turning to “11T: cellulose-bound 13-mer variant DCAWHLGELVTCT-(βA)(βA)”, in test [1], the “Result for incubation with human plasma” value is on record as 0. Besides, the “Result for incubation with human IgG-Fc” value in the test on human IgG-Fc is 0. Also, the “Result for incubation with serum albumin” value in the test on serum albumin is on record as 0.

As to “11C: cellulose-bound 13-mer variant DCAWHLGELVCCT-(βA)(βA) (DCAWHLGELVCCT-{βAla-βAla-cellulose}; not fully specified (bridges); printed as DCAWHLGELVCCT-(βA)(βA); cysteine pairing not given here; reading uncertain)”, in test [1], the “Result for incubation with human plasma” value is reported as 0. In addition, in the test on human IgG-Fc, the “Result for incubation with human IgG-Fc” value was 0. The “Result for incubation with serum albumin” value in the test on serum albumin is recorded as 0.

In the case of “09F: cellulose-bound 13-mer variant DCAWHLGEFVWCT-(βA)(βA) (DCAWHLGEFVWCT-{βAla-βAla-cellulose}; disulfide 2-12 (inferred); reading uncertain; also: printed as DCAWHLGEFVWCT-(βA)(βA))”, the “Result for incubation with human plasma” value in test [1] turned out to be 0. The “Result for incubation with human IgG-Fc” value in the test with human IgG-Fc is 0. Further, the “Result for incubation with serum albumin” value with serum albumin is listed as 0.

With “10N: cellulose-bound 13-mer variant DCAWHLGELNWCT-(βA)(βA) (DCAWHLGELNWCT-{βAla-βAla-cellulose}; disulfide 2-12 (inferred); reading uncertain; also: printed as DCAWHLGELNWCT-(βA)(βA))”, the “Result for incubation with human plasma” value in test [1] is reported as 0. Moreover, the “Result for incubation with human IgG-Fc” value in the test with human IgG-Fc is reported as 0. Also, the “Result for incubation with serum albumin” value in the test on serum albumin came to 0.

On to “11G: cellulose-bound 13-mer variant DCAWHLGELVGCT-(βA)(βA)”, for which the “Result for incubation with human plasma” value in test [1] is 0. The “Result for incubation with human IgG-Fc” value in the test on human IgG-Fc was 0. Also, the “Result for incubation with serum albumin” value in the test with serum albumin was found to be 0.

With “11F: cellulose-bound 13-mer variant DCAWHLGELVFCT-(βA)(βA) (DCAWHLGELVFCT-{βAla-βAla-cellulose}; disulfide 2-12 (inferred); reading uncertain; also: printed as DCAWHLGELVFCT-(βA)(βA))”, in test [1], the “Result for incubation with human plasma” value is recorded as 0. Also, in the test on human IgG-Fc, the “Result for incubation with human IgG-Fc” value was 0. Further, the “Result for incubation with serum albumin” value in the test on serum albumin is given as 0.

On to “09A: cellulose-bound 13-mer variant DCAWHLGEAVWCT-(βA)(βA) (DCAWHLGEAVWCT-{βAla-βAla-cellulose}; disulfide 2-12 (inferred); reading uncertain; also: printed as DCAWHLGEAVWCT-(βA)(βA))”, for which the “Result for incubation with human plasma” value in test [1] was 0. The “Result for incubation with human IgG-Fc” value with human IgG-Fc worked out at 0. In addition, in the test with serum albumin, the “Result for incubation with serum albumin” value is 0.

(Values after patent US7205382B2, “Peptides, the production and use thereof for binding immunoglobulins” (Fresenius Medical Care Affina GmbH, priority 2000, dated 2007).)
